Results reported in PMC2852844, “Anti-Parasitic Compounds from Streptomyces sp. Strains Isolated from Mediterranean Sponges” (Marine Drugs, 2010).
Read-outs that look alike come from different tables or passages of the source.

What was measured:
[1] = in vitro; conditions: human
Procedure: (§1) Following the addition of 20 μL of Alamar Blue, the plates were incubated and the ODs measured at 24 h, 48 h and 72 h.

[2] = test system: Trypanosoma brucei brucei laboratory strain TC 221; test: Trypanosoma brucei brucei trypomastigote growth inhibition (Alamar Blue); type: cell-based
Procedure: [22] Trypomastigote forms of Trypanosoma brucei brucei laboratory strain TC 221 were cultured in complete Baltz medium [80 mL Baltz medium basic solution, 0.8 mL 2 mercaptoethanol stock solution (20 mM), 0.8 mL penicillin/streptomycin (10,000 U/mL), 16 mL FCS (inactivated for 30 min at 56 °C). Baltz medium basic solution is composed of the following: 500 mL MEM with Earle’s salts and L-glutamine, 3 g Hepes, 0.5 g monohydrate glucose, 0.110 g sodium pyruvate, 0.007 g hypoxanthine, 0.002 g thymidine, 0.0107 g adenosine, 0.0141 g bathocuproine disulfonic acid disodium salt, 0.146 g glutamine, 5 mL sterile non-essential amino acid concentrate (100×, pH 7.5). A defined number of parasites ([…]) were exposed in test chambers of 96-well plates to various concentrations of the test substances (previously dissolved in DMSO) to make a final volume of 200 μL in duplicates. Positive (trypanosomes in culture medium) and negative controls (test substance without trypanosomes) were run simultaneously with each plate. The plates were then incubated at 37 °C in an atmosphere of 5% CO2 for a total time period of 72 h. After 24 h, 20 μL of Alamar Blue was added. […]. The first reading was done at 48 h and subsequently at 72 h. The effect of the test substances was quantified in IC50 values by linear interpolation of three independent measurements.

[3] = Cytotoxicity against 293T kidney epithelial cells (Alamar Blue); conditions: human
Procedure: as §1

[4] = test system: Leishmania major promastigotes; test: Leishmania major promastigote growth inhibition (Alamar Blue); type: cell-based
Procedure: Leishmania major promastigotes were seeded at a cell density of 1 × 10^7 cells/mL into 96-well plates in complete medium (RPMI with NaHCO3, 10% FCS, 2 mM glutamine, 10 mM Hepes pH 7.2, 100 U/mL penicillin, 50 μg/mL gentamicin, 50 mM 2-mercaptoethanol) without phenol red (200 mL), in the absence or presence of different concentrations of the compounds. These were then incubated for 24 h at 26 °C, 5% CO2 and 95% humidity. Following the addition of 20 mL of Alamar Blue, the plates were incubated again and the optical densities (ODs) measured 24 h and 48 h later with an enzyme-linked immunosorbent assay (ELISA) reader (Multiskan Ascent, Germany) using a test wavelength of 540 nm and a reference wavelength of 630 nm. Absorbance in the absence of compounds was set as 100% of growth. Amphotericin B was used as a reference compound and positive control. The effects of cell density, incubation time and the concentration of DMSO were examined in control experiments. The final concentration of DMSO in the medium never exceeded 1% vol/vol and had no effect on the proliferation of extracellular or intracellular parasites. For each experiment, each drug concentration was assayed in duplicate wells [31]

[5] = Cytotoxicity against J774.1 macrophages (Alamar Blue); conditions: mouse
Procedure: as §1

| SMILES | IC50 [1] [nM] | IC50 ([2]; reading at 48 h, read-out: IC50 Trypanosoma brucei brucei (48 h)) [nM] | IC50 ([2]; reading at 72 h, read-out: IC50 Trypanosoma brucei brucei (72 h)) [nM] | IC50 at 24 h [3] [nM] | IC50 [4] [nM] | IC50 at 24 h [5] [nM] | IC50 ([2]; 48 h, read-out: IC50 Trypanosoma brucei brucei (48 h)) [nM] | IC50 ([2]; 72 h, read-out: IC50 Trypanosoma brucei brucei (72 h)) [nM] |
| --- | --- | --- | --- | --- | --- | --- | --- | --- |
| CN[C@@H]1C[C@H]2O[C@@](C)([C@@H]1OC)n1c3ccccc3c3c4c(c5c6ccccc6n2c5c31)C(=O)NC4 [staurosporine] | 1300 | 22 | 35 | – | – | – | – | – |
| CC(C)[C@@H]1NC(=O)[C@H](C)OC(=O)[C@@H](C(C)C)NC(=O)[C@@H](C(C)C)OC(=O)[C@H](C(C)C)NC(=O)[C@H](C)OC(=O)[C@@H](C(C)C)NC(=O)[C@@H](C(C)C)OC(=O)[C@H](C(C)C)NC(=O)[C@H](C)OC(=O)[C@@H](C(C)C)NC(=O)[C@@H](C(C)C)OC1=O [valinomycin] | – | – | – | 11200 | < 110 | < 100 | 3.2 | 3.6 |
